Measurements from the Kinase Knowledgebase extract (Sharma et al. 2016).

Target: MAPK14 (human) (UniProt Q16539)
Experiment: Inhibition of MAPK14 Kinase Activity

MAPK14 (human), sequence (Q16539 whole entry, looked up): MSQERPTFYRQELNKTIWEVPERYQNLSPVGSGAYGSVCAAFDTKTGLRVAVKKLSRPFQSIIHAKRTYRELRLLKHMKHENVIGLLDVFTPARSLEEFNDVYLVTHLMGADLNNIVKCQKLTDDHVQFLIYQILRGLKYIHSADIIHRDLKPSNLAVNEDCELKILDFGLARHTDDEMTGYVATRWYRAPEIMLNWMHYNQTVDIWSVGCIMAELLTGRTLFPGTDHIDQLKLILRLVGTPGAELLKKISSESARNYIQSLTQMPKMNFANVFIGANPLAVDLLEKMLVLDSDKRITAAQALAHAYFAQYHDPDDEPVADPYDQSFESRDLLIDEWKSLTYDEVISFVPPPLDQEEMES

Row | Compound | IC50 [nM]
1 | O=C(N[C@@H]1CCC[C@H]1O)c1sc2c(ccc(=O)n2-c2ccccc2)c1Nc1ccc(F)cc1F | < 1000
2 | CN1CCC(NC(=O)c2sc3c(ccc(=O)n3-c3ccccc3)c2Nc2ccc(F)cc2F)CC1 | < 1000
3 | O=C(N[C@@H]1CCC[C@@H]1O)c1sc2c(ccc(=O)n2-c2ccccc2)c1Nc1ccc(F)cc1F | < 1000
4 | Cc1cccc(Nc2c(C(=O)C3CCNCC3)sc3c2ccc(=O)n3-c2ccccc2)n1 | < 1000
5 | O=C(c1sc2c(ccc(=O)n2-c2ccccc2)c1Nc1ccc(F)cc1F)C1CCNCC1 | < 1000
6 | Cc1cc(Nc2c(C(=O)C3CCNCC3)sc3c2ccc(=O)n3-c2ccccc2)ccc1F | < 1000
7 | O=C(c1sc2c(ccc(=O)n2-c2ccccc2)c1Nc1ccccc1)C1CCNCC1 | < 1000
8 | O=C(N[C@H]1CCC[C@@H]1O)c1sc2c(ccc(=O)n2-c2ccccc2)c1Nc1ccc(F)cc1F | < 1000
9 | Cc1cc(Nc2c(C(=O)NC3CNC3)sc3c2ccc(=O)n3-c2ccccc2)ccc1F | < 1000
10 | Cc1cc(Nc2c(C(=O)C3CCN(C)CC3)sc3c2ccc(=O)n3-c2ccccc2)ccc1F | < 1000

More lines, now with the values ahead:

Row | IC50 [nM] | Compound
11 | < 1000 | CN1CC[C@H](NC(=O)c2sc3c(ccc(=O)n3-c3ccccc3)c2Nc2ccc(F)cc2F)C1
12 | < 1000 | O=C(N[C@@H]1CCNC1)c1sc2c(ccc(=O)n2-c2ccccc2)c1Nc1ccc(F)cc1F
13 | < 1000 | O=C(NC1CCNC1)c1sc2c(ccc(=O)n2-c2ccccc2)c1Nc1ccc(F)cc1F (stereo unspecified)
14 | < 1000 | O=C(NC1CCNCC1)c1sc2c(ccc(=O)n2-c2ccccc2)c1Nc1ccc(F)cc1F
15 | < 1000 | CN1CC[C@@H](NC(=O)c2sc3c(ccc(=O)n3-c3ccccc3)c2Nc2ccc(F)cc2F)C1
16 | < 1000 | O=C(N[C@H]1CCNC1)c1sc2c(ccc(=O)n2-c2ccccc2)c1Nc1ccc(F)cc1F
